Measured values reported in US5830910A (priority 1995, dated 1998).
“Also recorded” adds a separate entry of the source.

Legend:
[1] = test system: cultured hippocampal neurons; assay: iron (FeSO4) neurotoxicity; format: cell-based, rat; conditions: 100 nM, 1 h preincubation
Source text: (§1) Dissociated embryonic rat hippocampal cell cultures were established and maintained. All procedures conformed with the NIH Guide for the Care and Use of Laboratory Animals and were approved by the University of Kentucky Animal Care and Use Committee. Cultures were maintained on a polyethyleneimine-coated substrate in plastic 35-mm dishes or 96 wall plates (for cell survival studies) or glass-bottom 35-mm dishes (for [Ca^2+ ]i imaging studies). The cell density was ^~ 70-100 cells/mm^2. Cells were maintained in Eagle's minimum essential medium supplemented 10% with fetal bovine serum and containing 20 mM sodium pyruvate. […] Aβ25-35 (Bachem, lot ZJ744) and Aβ1-40 (Bachem, lot ZK600) were stored in the lyophilized form, and stocks were prepared immediately before use by dissolving the peptide at a concentration of 1 mM in sterile distilled water. […] Glutamate and colchicine (Sigma) were prepared as 200-500x stocks in saline. Cytochalasins D and E (Sigma) and calcium ionophore 4-bromo-A23187 (Calbiochem) were prepared as 500x stocks in dimethyl sulfoxide. Vitamin E (α-tocopherol; Sigma) was prepared as a 500x stock in ethanol. Nordihydroguaiaretic acid and FeSo4 were prepared as 500x stocks in sterile water.
(§2) Neuronal survival was quantified by counting viable neurons in the same microscope fields (10x objective) immediately before experimental treatment and at time points after treatment. In addition, cells were grown in 96-well plates and Alamar blue fluorescence (Alamar Laboratories)was quantified by using a fluorescence plate reader. Alamar Blue is a non-fluorescent substrate that, after reduction by cell metabolites, becomes fluorescent. Usually neurons that died in the time intervals (20-48 h) between examination points were absent. Viability of the remaining neurons was assessed by morphological criteria. Neutrons with intact neurites of uniform diameter and a soma with a smooth, round appearance were considered viable, whereas neurons with fragmented neurites and a vacuolated or swollen soma were considered nonviable. Survival values were expressed as percentages of the initial number of neurons present before experimental treatment. Statistical comparisons were made using ANOVA and Scheffe post-hoc tests for pairwise comparisons.
FIG. 8. Cultures were preincubated 1 h in the presence of 0.5% dimethylsulfoxide (control), 100 nM cytochalasin D, 50 μg/ml vitamin E (VitE), or 2 μM nordihydroguairetic acid (NDGA). Cultures were then exposed for 6 h to the indicated concentrations of FeSO4 and neuronal survival was quantified. Values represent the means and SEM of determinations made in four separate cultures. *P<0.001 compared to value for cultures exposed to 100 μM FeSO4 alone.

[2] = test system: cultured hippocampal neurons; assay: hydrogen peroxide neurotoxicity; format: cell-based, rat
Source text: as §1
as §2, with “Usually neurons that died in the time intervals (20-48 h) between examination points were absent.” left out
FIG. 15. […] Cultures were pretreated for 1 h with vehicle (Control), 100 nM cytochalasin D (CyD), or 50 μg/ml vitamin E (vE) and then exposed for 20 h to the indicated concentrations of hydrogen peroxide. Data are mean and SEM values of determinations made in four separate cultures.

[3] = test system: hippocampal region CA3 neurons; assay: kainate lesion paradigm, CA3 neurons; format: in vivo, rat (Sprague-Dawley); conditions: for neurons damaged by kainate: intraventricular
Procedure: A kainate lesion paradigm was employed in adult rats to determine whether cytochalasin D was also excitoprotective. Twenty-four adult male Sprague-Dawley rats (250-300 g) were divided into the indicated experimental groups (4-5 rats/group). Kainate (0.5 µg/[…]) was injected stereotaxically into region CA1 of the right hippocampus of anesthetized rats. Cytochalasin D (the indicated concentration in 1 μl of saline-1% DMSO) or vehicle was infused into the right lateral ventricle during a 5-10 min period immediately following kainate injection. Rats were killed 48 hr later and perfused transcardially with 4% paraformaldehyde. Brain sections (30 μm) were stained with cresyl violet and stained neurons in three adjacent 40X microscope fields of hippocampal region CA3 were counted (5 sections/rat) . The neuronal counts were performed in sections removed approximately 200-400 μm from the injection site. This method results in highly reproducible, 75-99%, neuronal loss in the CA3 region in over 99% of the rats injected with kainate (calculations based on 302 rats receiving intra-hippocampal kainate). […] Approximately 80% of the neurons were killed by kainate in control animals receiving an intracerebroventricular infusion of saline immediately following kainate administration.
Cresyl violet-stained coronal sections from brains of rats administered kainate alone (left) of kainate plus cytochalasin D (CyD; right). […] Lower micrographs are high magnification of a region of CA3 from the sections shown in the upper panels.
FIG. 3. Counts of viable neurons were made in region CA3 of Sham-operated rats, and rats infused intraventricularly with vehicle or increasing concentration of cytochalasin D […] unilateral kainate injection into region CA1 of the hippocampus. Neuronal survival in the kainate injected hippocampus is expressed as a percentage of neurons in the contralateral hippocampus. Values represent the mean and SEM (4 or 5 rats/group). *p<0.01 compared to value for sham rats. **p<0.01 compared to value for vehicle-infused rats. (ANOVA with Scheffe's post-hoc test).

[4] = test system: cultured hippocampal neurons; format: cell-based, rat; conditions: 100 nM, added 1 h before 50 μM Aβ; 48 h
Source text: as §1, §2
FIG. 12. (A) Cultures were pretreated for 1 h with vehicle 0.2% dimethyl sulfoxide (Control) or 100 nM cytochalasin D (CyD) and were exposed to the indicated concentrations of Aβ25-35 for 48 h. Data are mean and SEM values of determinations made in four separate cultures.
(B) Cultures were pretreated for 1 h with the indicated concentrations of cytochalasin D and then exposed to 50 μM Aβ25-35; parallel cultures were exposed to cytochalasin D alone (Control) . Data are mean and SEM values of determinations made in four separate cultures.
FIG. 14. Cultures were exposed to 100 nM colchicine; 50 μM Aβ; 100 nM colchicine plus 50 μM Aβ; 100 nM cytochalasin E (CyE) plus Aβ (colchicine and cytochalasin E were added 1 h before Aβ); neuronal survival was assessed 48 h later. Data are mean and SEM values of determinations made in four separate cultures. *p<0.01, compared with values for control or colchicine alone. **p<0.01, compared with value for cultures exposed to Aβ alone.

Compound | effect on neuronal loss induced by iron [1] | effect on neuronal killing by hydrogen peroxide ([2]; 100 nM, 1 h pretreatment, 20 h) | antioxidant activity ([2]; suggested from hydrogen peroxide test) | neurons damaged by kainate ([3]; 0.1 μg) [%] | neurons damaged by kainate ([3]; 1.00 μg) [%] | reduction in neuronal injury to CA3 neurons after kainate ([3]; intraventricular infusion, dose related, 48 hr) | effect on Aβ neurotoxicity [4]
C=C1[C@@H](C)[C@H]2[C@H](Cc3ccccc3)NC(=O)[C@]23[C@H](OC(C)=O)/C=C/[C@@](C)(O)C(=O)[C@@H](C)C/C=C/[C@H]3[C@@H]1O [Cytochalasin D, cytochalasin D] | not significantly altered | not altered; also recorded: does not protect neurons against hydrogen peroxide toxicity | little or no antioxidant activity | 20 | 20 | highly significant reduction in neuronal injury to CA3 neurons; also recorded: marked reduction in the damage | –
COc1cc2c(c(OC)c1OC)-c1ccc(OC)c(=O)cc1[C@@H](NC(C)=O)CC2 [Colchicine, colchicine, reference compound] | – | – | – | – | – | – | did not protect neurons against Aβ toxicity
